# Literature values, collected in patent US6652866B1 (priority 1997, dated 2003).
# Test system: scrapie
# Details: hamsters
smiles,measurement,value
C[C@@H]1[C@H](O)[C@@H](C)/C=C/C=C/C=C/C=C/C=C/C=C/C=C/[C@H](O[C@@H]2O[C@H](C)[C@@H](O)[C@H](N)[C@@H]2O)C[C@@H]2O[C@](O)(C[C@@H](O)C[C@@H](O)[C@H](O)CC[C@@H](O)C[C@@H](O)CC(=O)O[C@H]1C)C[C@H](O)[C@H]2C(=O)O [amphoteracin-b],incubation time of scrapie,prolonged the incubation time
same,"prevention of onset of neurological symptoms, neuronal destruction and death",ineffective
